Data reported in patent publication US11926613B2, “Kinase inhibitors for the treatment of central and peripheral nervous system disorders” (UNIVERSITY OF MIAMI, priority 2017, dated 2024).
Where two headings read alike, the source gives them in different places.

How the values were obtained:
[1] = test system: neurons from hippocampi of E18 rat embryos; assay: Neurite growth length (% NTL) in cultured E18 rat hippocampal neurons, 9-point dose response, 48 hours; format: cell-based; details: for activity at 0.078 µM / activity at 0.156 µM / activity at 0.312 µM / activity at 0.625 µM / activity at 1.25 µM / activity at 2.5 µM / activity at 5 µM / activity at 10 µM / activity at 20 µM: Rattus norvegicus, Neuron, 48 h
In short: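 Dissociated E18 rat hippocampal neurons at 1500 cells/well on PDL were exposed 48 h to 9 concentrations from 20 μM down to 0.078125 μM. After PFA fixation and βIII-tubulin/Hoechst staining, ArrayScan imaging traced neurites in at least 200–300 neurons per condition to give % NTL.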

[2] = test system: Primary Neurons; assay: HCS neurite outgrowth assay (High Content Screening with Primary Neurons); format: cell-based

| Compound | activity at 0.078 µM ([1]; 78 nM) [%] | activity at 0.156 µM ([1]; 156 nM) [%] | activity at 0.312 µM ([1]; 312 nM) [%] | activity at 0.625 µM ([1]; 625 nM) [%] | activity at 1.25 µM ([1]; 1.25 μM) [%] | activity at 2.5 µM ([1]; 2.5 μM) [%] | activity at 5 µM ([1]; 5 μM) [%] | activity at 10 µM ([1]; 10 μM) [%] | activity at 20 µM ([1]; 20 μM) [%] | EC50 ([2]; Primary neuron) [µM] | neurite growth length (% NTL) ([1]; 78 nM) | neurite growth length (% NTL) ([1]; 156 nM) | neurite growth length (% NTL) ([1]; 312 nM) | neurite growth length (% NTL) ([1]; 625 nM) | neurite growth length (% NTL) ([1]; 1.25 μM) | neurite growth length (% NTL) ([1]; 2.5 μM) | neurite growth length (% NTL) ([1]; 5 μM) | neurite growth length (% NTL) ([1]; 10 μM) | neurite growth length (% NTL) ([1]; 20 μM) | EC50 [2] [µM] |
| --- | --- | --- | --- | --- | --- | --- | --- | --- | --- | --- | --- | --- | --- | --- | --- | --- | --- | --- | --- | --- |
| COc1ccc(OC)c(C(=O)c2ccc(C(=O)N[C@@H]3CCCCC[C@H]3NC(=O)c3ccncc3)cc2)c1F [Example A24, N-[(1R,2R)-2-[4-(2-fluoro-3,6-dimethoxybenzoyl)benzamido]cycloheptyl] pyridine-4-carboxamide] | 96.3 | 96.8 | 93.4 | 96.9 | 91.8 | 101 | 114 | 131 | 169 | 16.1 |  |  |  |  |  |  |  |  |  |  |
| COc1ccc(O)c(C(=O)c2ccc(C(=O)N[C@@H]3CNC[C@H]3NC(=O)c3cccnc3)cc2)c1F [Example A38, N-[(3R,4R)-4-[4-(2-fluoro-6-hydroxy-3-methoxybenzoyl)benzamido]pyrrolidin-3-yl]pyridine-3-carboxamide] | 108 | 102 | 103 | 96.6 | 100 | 100 | 106 | 100 | 87.7 | 3.15 |  |  |  |  |  |  |  |  |  |  |
| COc1ccc(O)c(C(=O)c2ccc(C(=O)N[C@@H]3CCCCC[C@H]3NC(=O)c3ccncc3)cc2)c1F [Example A25, N-[(1R,2R)-2-[4-(2-fluoro-6-hydroxy-3-methoxybenzoyl)benzamido]cycloheptyl] pyridine-4-carboxamide] | 98.9 | 97.5 | 110 | 111 | 120 | 122 | 134 | 146 | 163 | > 20 |  |  |  |  |  |  |  |  |  |  |
| Nc1nccc(C(=O)N[C@@H]2CNC[C@H]2NC(=O)c2ccc(C(=O)c3cccc(Cl)c3O)cc2)n1 [Example A70, 2-amino-N-[(3R,4R)-4-[4-(3-chloro-2-hydroxybenzoyl)benzamido]pyrrolidin-3-yl]pyrimidine-4-carboxamide] | 103 | 107 | 115 | 122 | 123 | 117 | 122 | 135 | 145 | > 20 |  |  |  |  |  |  |  |  |  |  |
| Cc1ccc(O)c(C(=O)c2ccc(C(=O)N[C@@H]3CNC[C@H]3NC(=O)c3ccncc3)cc2)c1 [Example A78, N-[(3R,4R)-4-[4-(2-hydroxy-5-methylbenzoyl)benzamido]pyrrolidin-3-yl]pyridine-4-carboxamide] | 122 | 121 | 133 | 143 | 152 | 176 | 256 | 410 | 503 | 7.77 |  |  |  |  |  |  |  |  |  |  |
| O=C(N[C@@H]1CNC[C@H]1NC(=O)c1ccc(C(=O)c2ccccc2)cc1)c1ccncc1 (stereo in doubt) [Example A13, N-[(3R,4R)-4-(4-benzoylbenzamido)pyrrolidin-3-yl]pyridine-4-carboxamide] | 99.5 | 101 | 97.7 | 103 | 106 | 113 | 120 | 129 | 147 | 4.96 |  |  |  |  |  |  |  |  |  |  |
| Cc1cc(C(=O)N[C@@H]2CNC[C@H]2NC(=O)c2ccncc2)ccc1C(=O)c1ccccc1O [Example A64, N-[(3R,4R)-4-[4-(2-hydroxybenzoyl)-3-methylbenzamido]pyrrolidin-3-yl]pyridine-4-carboxamide] | 91.3 | 99.8 | 107 | 105 | 116 | 129 | 124 | 121 | 126 | 0.593 |  |  |  |  |  |  |  |  |  |  |
| COc1cccc(C(=O)c2ccc(C(=O)N[C@@H]3CNC[C@H]3NC(=O)c3ccncc3)cc2)c1O [Example A73, N-[(3R,4R)-4-[4-(2-hydroxy-3-methoxybenzoyl)benzamido]pyrrolidin-3-yl]pyridine-4-carboxamide] | 96.7 | 110 | 102 | 105 | 125 | 117 | 121 | 136 | 159 | > 20 |  |  |  |  |  |  |  |  |  |  |
| O=C(N[C@@H]1CCCC[C@H]1NC(=O)c1ccc(C(=O)c2ccccc2)cc1)c1ccncc1 [Example A19, N-[(1R,2R)-2-(4-benzoylbenzamido)cyclohexyl]pyridine-4-carboxamide] | 90.1 | 93.7 | 68.7 | 75 | 75.7 | 78.5 | 79.4 | 87.4 | 91.2 | 2.24 |  |  |  |  |  |  |  |  |  |  |
| COc1ccc(O)c(C(=O)c2ccc(C(=O)N[C@@H]3CNC[C@H]3NC(=O)c3ccc(O)nc3)cc2)c1F [Example A39, N-[(3R,4R)-4-[4-(2-fluoro-6-hydroxy-3-methoxybenzoyl)benzamido]pyrrolidin-3-yl]-6-hydroxypyridine-3-carboxamide] | 96.3 | 93 | 85.5 | 80.5 | 83 | 87.3 | 98 | 98.9 | 101 | 3.76 |  |  |  |  |  |  |  |  |  |  |
| N[(3R,4R)-4-{4-[(2-fluoro-6-hydroxy-3- methoxyphenyl)methyl]benzamido}pyrrolidin- 3-yl]pyridine-4-carboxamide [Example A55] |  |  |  |  |  |  |  |  |  |  | 85.02 | 77.96 | 80.06 | 76.79 | 81.96 | 90.13 | 93.58 | 98.77 | 96.04 | 4.74 |
| COc1ccc(OC)c(C(=O)c2ccc(C(=O)NCCNC(=O)c3ccncc3)cc2)c1F [Example A26, 4-(2-fluoro-3,6-dimethoxybenzoyl)-N-{2-[(pyridin-4-yl)formamido]ethyl}benzamide] | 93.3 | 99.2 | 94.2 | 99.3 | 93.5 | 99.9 | 102 | 97.8 | 117 | > 20 |  |  |  |  |  |  |  |  |  |  |
| COc1ccc(OC)c(C(=O)c2ccc(C(=O)N3CCN(C(=O)c4ccncc4)CC3)cc2)c1F [Example A8, 1-[4-(2-fluoro-3,6-dimethoxybenzoyl)benzoyl]-4-(pyridine-4-carbonyl)piperazine] | 99.2 | 98.7 | 96.4 | 99 | 92.9 | 94.4 | 93.8 | 93.2 | 81.6 | > 20 |  |  |  |  |  |  |  |  |  |  |
| Cc1ccc(C(=O)c2ccc(C(=O)N[C@@H]3CNC[C@H]3NC(=O)c3ccnc(N)n3)cc2)c(O)c1 [Example A80, 2-amino-N-[(3R,4R)-4-[4-(2-hydroxy-4-methylbenzoyl)benzamido]pyrrolidin-3-yl]pyrimidine-4-carboxamide] | 125 | 124 | 141 | 158 | 178 | 221 | 203 | 160 | 155 | 0.534 |  |  |  |  |  |  |  |  |  |  |
| COc1ccc(OC)c(C(=O)c2ccc(C(=O)N[C@@H]3CN(C)C[C@H]3NC(=O)c3ccncc3)cc2)c1F [Example A33, N-[(3R,4R)-4-[4-(2-fluoro-3,6-dimethoxybenzoyl)benzamido]-1-methylpyrrolidin-3-yl]pyridine-4-carboxamide] | 108 | 106 | 99.3 | 107 | 115 | 129 | 142 | 159 | 207 | > 20 |  |  |  |  |  |  |  |  |  |  |
| O=C(N[C@@H]1CNC[C@H]1NC(=O)c1ccc(C(=O)c2ccccc2O)cc1Cl)c1ccncc1 [Example A65, N-[(3R,4R)-4-[2-chloro-4-(2-hydroxybenzoyl)benzamido]pyrrolidin-3-yl]pyridine-4-carboxamide] | 108 | 117 | 123 | 113 | 126 | 129 | 128 | 150 | 161 | 7.11 |  |  |  |  |  |  |  |  |  |  |
